Tests used:
[1] = target: Human CB2R (Cannabanoid receptor 2) (Homo sapiens (Human), UniProt P34972); test: CB-2 in vitro cAMP assay (HTRF); type: cell-based; settings: mean where tested more than once
Excerpt: (§1) CB1 and CB2 receptors are Gi-coupled GPCR. Activation of CB1 and CB2 receptors results in a decrease in cAMP production. An inverse agonist of the CB1 or CB2 receptor results in the opposite effect, an increase of cAMP production. The principle of this assay is based on HTRF® technology (Homogeneous Time-Resolved Fluorescence). The method is a competitive immunoassay between native cAMP produced by cells and the cAMP labeled with the fluorophore d2. The tracer binding is quantified by a Mab anti-cAMP labeled with Eu3+TBP-NHS Cryptate (supplied as part of the assay kit). The specific signal (i.e. energy transfer) is inversely proportional to the concentration of cAMP in the standard or sample.
(§2) Human CB1R (Cannabanoid receptor 1) was stably transfected in HEK-293 cells (DiscoveRx, cat: 93-0200C1). Human CB2R (Cannabanoid receptor 2) was stably transfected in HEK-293 cells (DiscoveRx, cat: 93-0201C1). Cell cultures were maintained in media: DMEM (Invitrogen Cat#12430-054) supplemented with 10% HI FBS (Invitrogen Cat#16140-071), 1% L-glutamine (Invitrogen Cat#25030-081), 0.2 mg/ml Hygromycin B (Invitrogen Cat#10687-010), 600 μg/mL G418 (Invitrogen Cat#10131-035), and 1× Penn/Strep (Invitrogen 15140-122). After cell expansion, aliquots were cryo-stored in media containing 5% DMSO (Pierce Cat#20684).
(§3) One day prior to experiments media was warmed to 37° C. and the cryo-stored cells were thawed in a 37° C. water bath. The cells were then added to media (10× volume) and the mixture was centrifugated at 1000 RPM for 5 min. The supernate was removed and the cells were re-suspended in media. A sample of the cell suspension was evaluated on a Cedex XS automated cell counter (Innovatis Systems) to determine viable cells/ml. Additional media was added to the cells to achieve a final cell density of 4E5 cells/mL. The cells were then plated into 384 well PDL white solid bottom plates (Greiner, Cat#781945) at 20 μL per well using a Multidrop (Thermo Scientific). Cells were removed from Row P (location of cAMP standards). Two columns of cells were plated into a clear bottom 384 well PDL coated plate (Greiner, Cat#781944) to view confluence the day of the assay. The cell plates were lidded and stored for 15 minutes in a hood, then transferred to an incubator (37° C., 5% CO2, 95% humidity) overnight.
(§4) DMSO was added to all wells of 384 well V bottom polystyrene plate (Greiner, Cat#781280) except to columns 1 and 13, rows O and P and wells M13-M23 and N13-N23. Test compounds (60 μL, 10 mM) were added to Column 1 and 13 (A1 through N1 and A13 through L13). Test compounds were serially diluted 1/3 by transferring and mixing 20 μl sample with 40 μL DMSO.
(§5) DMSO (40 μL) was added to wells of 384 well V bottom polystyrene plate: O2 through O11, M14 through M23, N14 through N23, and O14 through O23. AM630 (also known as [6-iodo-2-methyl-1-[2-(4-morpholinyl)ethyl]-1H-indol-3-yl](4-methoxyphenyl)-methanone, Cayman Chemical, Cat#10006974) (60 μL, 10 mM) was added to O1; and 1-(2,4-dichlorophenyl)-7-[(4-fluorophenyl)methylene]-4,5,6,7-tetrahydro-N-1-piperidinyl-1H-indazole-3-carboxamide (60 μL, 10 mM) was added to N13. The control was serially diluted 1/3 by transferring and mixing 20 μl sample with 40 μL DMSO. This process resulted 11 doses per control, 10 mM to […].
(§6) Cells plated the day prior to the assay in clear bottom plates were viewed on an inverse microscope to ensure confluency in the range of 60-75%. […]

[2] = target: Human CB1R (Cannabanoid receptor 1) (Homo sapiens (Human), UniProt P21554); test: CB-1 in vitro cAMP assay (HTRF); type: cell-based; settings: mean where tested more than once
Chain of Human CB1R (Cannabanoid receptor 1) (P21554 whole entry): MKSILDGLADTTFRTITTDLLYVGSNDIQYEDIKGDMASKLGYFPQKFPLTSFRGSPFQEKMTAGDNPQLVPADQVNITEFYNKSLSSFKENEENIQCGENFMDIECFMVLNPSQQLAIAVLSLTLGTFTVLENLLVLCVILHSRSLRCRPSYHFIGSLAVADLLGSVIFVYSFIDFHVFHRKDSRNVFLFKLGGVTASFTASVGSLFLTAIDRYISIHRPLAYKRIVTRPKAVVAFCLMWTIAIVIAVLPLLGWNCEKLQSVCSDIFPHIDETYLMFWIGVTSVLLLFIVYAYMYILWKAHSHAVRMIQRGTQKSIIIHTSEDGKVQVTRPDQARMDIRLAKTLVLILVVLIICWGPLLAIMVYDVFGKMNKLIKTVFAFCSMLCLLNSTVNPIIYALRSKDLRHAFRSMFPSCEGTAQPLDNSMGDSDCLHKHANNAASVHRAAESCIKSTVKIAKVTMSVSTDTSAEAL
Excerpt: as §1, §2, §3, §4, §5, §6

Chain of Human CB2R (Cannabanoid receptor 2) (P34972 whole entry): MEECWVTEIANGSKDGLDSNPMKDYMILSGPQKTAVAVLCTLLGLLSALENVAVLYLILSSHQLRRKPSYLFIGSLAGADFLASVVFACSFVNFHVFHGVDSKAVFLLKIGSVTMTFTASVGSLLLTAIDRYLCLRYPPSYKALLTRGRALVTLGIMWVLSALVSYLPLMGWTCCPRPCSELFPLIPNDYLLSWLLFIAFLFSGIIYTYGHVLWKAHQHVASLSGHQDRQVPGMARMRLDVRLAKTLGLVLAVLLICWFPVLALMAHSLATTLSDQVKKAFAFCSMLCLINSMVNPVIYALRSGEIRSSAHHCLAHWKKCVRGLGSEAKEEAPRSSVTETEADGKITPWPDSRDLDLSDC

Row | EC50 [1] | EC50 [2] | SMILES
1 | 806 nM | 67 nM | O=C(O)CCOCCOc1nc(NCc2cccc(C(F)(F)F)c2)c2cc(C(c3ccc(Cl)cc3)c3ccc(Cl)cc3)ccc2n1 [Compound #48, 3-(2-((6-(bis(4-chlorophenyl)methyl)-4-((3-(trifluoromethyl)benzyl)amino)quinazolin-2-yl)oxy)ethoxy)propanoic acid]
2 | 1930 nM | 4 nM | OCC(CO)COc1nc(NCc2cccc(C(F)(F)F)c2)c2cc(C(c3ccc(Cl)cc3)c3ccc(Cl)cc3)ccc2n1 [Compound #49, 2-(((6-(bis(4-chlorophenyl)methyl)-4-((3-(trifluoromethyl)benzyl)amino)quinazolin-2-yl)oxy)methyl)propane-1,3-diol]
3 | > 10000 nM | 11 nM | N#CCCOCCOc1nc(NCc2cccc(C(F)(F)F)c2)c2cc(C(c3ccc(Cl)cc3)c3ccc(Cl)cc3)ccc2n1 [Compound #50, 3-(2-((6-(bis(4-chlorophenyl)methyl)-4-((3-(trifluoromethyl)benzyl)amino)quinazolin-2-yl)oxy)ethoxy)propanenitrile]
4 | > 10000 nM | 12 nM | N#Cc1ccc(S(=O)(=O)N2CCC(Nc3ncnc4ccc(C(c5ccc(Cl)cc5)c5ccc(Cl)cc5)cc34)CC2)cc1 [Compound #52, 4-((4-((6-(bis(4-chlorophenyl)methyl)quinazolin-4-yl)amino)piperidin-1-yl)sulfonyl)benzonitrile]
5 | 3700 nM | 42 nM | OCCCCOc1nc(NCc2cccc(C(F)(F)F)c2)c2cc(C(c3ccc(Cl)cc3)c3ccc(Cl)cc3)ccc2n1 [Compound #53, 4-((6-(bis(4-chlorophenyl)methyl)-4-((3-(trifluoromethyl)benzyl)amino)quinazolin-2-yl)oxy)butan-1-ol]
6 | 4440 nM | 13 nM | OCCOc1nc(NCc2cccc(C(F)(F)F)c2)c2cc(C(c3ccc(Cl)cc3)c3ccc(Cl)cc3)ccc2n1 [Compound #55, 2-((6-(bis(4-chlorophenyl)methyl)-4-((3-(trifluoromethyl)benzyl)amino)quinazolin-2-yl)oxy)ethanol]
7 | 4950 nM | 215 nM | NC(=O)c1cccc(CNc2ncnc3ccc(C(c4ccc(Cl)cc4)c4ccc(Cl)cc4)cc23)c1 [Compound #57, 3-(((6-(bis(4-chlorophenyl)methyl)quinazolin-4-yl)amino)methyl)benzamide]
8 | 67 nM | 0.5 nM | COc1ccc(C(c2ccc(Cl)cc2)c2ccc3ncnc(NC4CCN(c5ccccc5)CC4)c3c2)cc1 (stereo not shown) [Compound #58, 6-((4-chlorophenyl)(4-methoxyphenyl)methyl)-N-(1-phenylpiperidin-4-yl)quinazolin-4-amine]
9 | > 10000 nM | 4430 nM | O=C(O)c1cccc(CNc2ncnc3ccc(C(c4ccc(Cl)cc4)c4ccc(Cl)cc4)cc23)c1 [Compound #59, 3-(((6-(bis(4-chlorophenyl)methyl)quinazolin-4-yl)amino)methyl)benzoic acid]
10 | 8080 nM | 14 nM | COC(=O)c1cccc(CNc2ncnc3ccc(C(c4ccc(Cl)cc4)c4ccc(Cl)cc4)cc23)c1 [Compound #62, Methyl 3-(((6-(bis(4-chlorophenyl)methyl)quinazolin-4-yl)amino)methyl)benzoate]
11 | > 10000 nM | 15 nM | CC(C)OC(=O)OCOC(=O)c1ccc(S(=O)(=O)N2CCC(Nc3ncnc4ccc(C(c5ccc(Cl)cc5)c5ccc(Cl)cc5)cc34)CC2)cc1 [Compound #64, ((Isopropoxycarbonyl)oxy)methyl 4-((4-((6-(bis(4-chlorophenyl)methyl)quinazolin-4-yl)amino)piperidin-1-yl)sulfonyl)benzoate]
12 | 845 nM | 8 nM | NC(=O)CCCOc1nc(NCc2ccc(C(F)(F)F)cc2)c2cc(C(c3ccc(Cl)cc3)c3ccc(Cl)cc3)ccc2n1 [Compound #66, 4-((6-(bis(4-chlorophenyl)methyl)-4-((4-(trifluoromethyl)benzyl)amino)quinazolin-2-yl)oxy)butanamide]
13 | 1150 nM | 1 nM | Fc1ccc(C(c2ccc(F)cc2)c2ccc3ncnc(NC4CCN(c5ccccc5)CC4)c3c2)cc1 [Compound #67, 6-(bis(4-fluorophenyl)methyl)-N-(1-phenylpiperidin-4-yl)quinazolin-4-amine]
14 | > 10000 nM | 950 nM | O=C(O)c1ccc(C(=O)N2CCC(Nc3ncnc4ccc(C(c5ccc(Cl)cc5)c5ccc(Cl)cc5)cc34)CC2)cc1 [Compound #68, 4-(4-((6-(bis(4-chlorophenyl)methyl)quinazolin-4-yl)amino)piperidine-1-carbonyl)benzoic acid]
15 | > 10000 nM | 98 nM | CC(=O)NCCOc1nc(NCc2ccc(C(F)(F)F)cc2)c2cc(C(c3ccc(Cl)cc3)c3ccc(Cl)cc3)ccc2n1 [Compound #69, N-(2-((6-(bis(4-chlorophenyl)methyl)-4-((4-(trifluoromethyl)benzyl)amino)quinazolin-2-yl)oxy)ethyl)acetamide]
16 | > 10000 nM | 19 nM | OCCCCOc1nc(NCc2ccc(C(F)(F)F)cc2)c2cc(C(c3ccc(Cl)cc3)c3ccc(Cl)cc3)ccc2n1 [Compound #71, 4-((6-(bis(4-chlorophenyl)methyl)-4-((4-(trifluoromethyl)benzyl)amino)quinazolin-2-yl)oxy)butan-1-ol]
17 | > 10000 nM | 51 nM | NCCOc1nc(NCc2ccc(C(F)(F)F)cc2)c2cc(C(c3ccc(Cl)cc3)c3ccc(Cl)cc3)ccc2n1 [Compound #72, 2-(2-aminoethoxy)-6-(bis(4-chlorophenyl)methyl)-N-(4-(trifluoromethyl)benzyl)quinazolin-4-amine]
18 | 4430 nM | 14 nM | COC(=O)c1ccc(C(=O)N2CCC(Nc3ncnc4ccc(C(c5ccc(Cl)cc5)c5ccc(Cl)cc5)cc34)CC2)cc1 [Compound #73, methyl 4-(4-((6-(bis(4-chlorophenyl)methyl)quinazolin-4-yl)amino)piperidine-1-carbonyl)benzoate]
19 | 178 nM | 82 nM | NC(=O)Cc1ccc(N2CCC(Nc3ncnc4ccc(C(c5ccc(Cl)cc5)c5ccc(Cl)cc5)cc34)CC2)cc1 [Compound #74, 2-(4-(4-((6-(bis(4-chlorophenyl)methyl)quinazolin-4-yl)amino)piperidin-1-yl)phenyl)acetamide]
20 | > 10000 nM | 5 nM | [N-]=[N+]=NCCOc1nc(NCc2ccc(C(F)(F)F)cc2)c2cc(C(c3ccc(Cl)cc3)c3ccc(Cl)cc3)ccc2n1 [Compound #75, 2-(2-azidoethoxy)-6-(bis(4-chlorophenyl)methyl)-N-(4-(trifluoromethyl)benzyl)quinazolin-4-amine]
21 | 9400 nM | 16 nM | O=S(=O)(CCO)N1CCC(Nc2ncnc3ccc(C(c4ccc(Cl)cc4)c4ccc(Cl)cc4)cc23)CC1 [Compound #78, 2-((4-((6-(bis(4-chlorophenyl)methyl)quinazolin-4-yl)amino)piperidin-1-yl)sulfonyl)ethanol]
22 | 173 nM | 4 nM | COC(=O)Cc1ccc(N2CCC(Nc3ncnc4ccc(C(c5ccc(Cl)cc5)c5ccc(Cl)cc5)cc34)CC2)cc1 [Compound #79, Methyl 2-(4-(4-((6-(bis(4-chlorophenyl)methyl)quinazolin-4-yl)amino)piperidin-1-yl)phenyl)acetate]
23 | 452 nM | 2 nM | CCOC(=O)CCC(=O)N1CCC(Nc2ncnc3ccc(C(c4ccc(Cl)cc4)c4ccc(Cl)cc4)cc23)CC1 [Compound #81, Ethyl 4-(4-((6-(bis(4-chlorophenyl)methyl)quinazolin-4-yl)amino)piperidin-1-yl)-4-oxobutanoate]
